Assay results reported in PubChem BioAssay (NCI).
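Compound exposure: 48 hours, 5 concentrations, 96-well plates. GI50 is the concentration that inhibits growth by half. TGI: total growth inhibition.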

Assays:
Test in all cases: growth of human tumour cells (NCI), 48 h
[1] = tested on: 786-0 renal
[2] = tested on: A498 renal
[3] = tested on: A549 NSCLC
[4] = tested on: ACHN renal
[5] = tested on: CAKI-1 renal
[6] = tested on: COLO 205 colon
[7] = tested on: EKVX NSCLC
[8] = tested on: HCC-2998 colon
[9] = tested on: HCT-116 colon
[10] = tested on: HL-60(TB) leukemia
[11] = tested on: HOP-62 NSCLC
[12] = tested on: HOP-92 NSCLC
[13] = tested on: HT29 colon
[14] = tested on: IGROV1 ovarian
[15] = tested on: K-562 leukemia
[16] = tested on: KM12 colon
[17] = tested on: KM20L2 colon
[18] = tested on: LOX IMVI melanoma
[19] = tested on: M14 melanoma
[20] = tested on: MALME-3M melanoma
[21] = tested on: MOLT-4 leukemia
[22] = tested on: NCI-H226 lung
[23] = tested on: NCI-H23 lung
[24] = tested on: NCI-H460 lung
[25] = tested on: NCI-H522 lung
[26] = tested on: OVCAR-3 ovarian
[27] = tested on: OVCAR-4 ovarian
[28] = tested on: OVCAR-5 ovarian
[29] = tested on: OVCAR-8 ovarian
[30] = tested on: RPMI-8226 leukemia
[31] = tested on: RXF 393 renal
[32] = tested on: SF-268 CNS
[33] = tested on: SF-295 CNS
[34] = tested on: SF-539 CNS
[35] = tested on: SK-MEL-2 melanoma
[36] = tested on: SK-MEL-28 melanoma
[37] = tested on: SK-MEL-5 melanoma
[38] = tested on: SK-OV-3 ovarian
[39] = tested on: SN12C renal
[40] = tested on: SNB-19 CNS
[41] = tested on: SNB-75 CNS
[42] = tested on: SW-620 colon
[43] = tested on: TK-10 renal
[44] = tested on: U251 CNS
[45] = tested on: UACC-257 melanoma
[46] = tested on: UACC-62 melanoma
[47] = tested on: UO-31 renal

**Q.** CC(=O)[O-].O=C([CH-]C(=O)c1ccccc1)c1ccccc1.O=C([CH-]C(=O)c1ccccc1)c1ccccc1.[Dy+3] was tested. Which GI50 [1] did it give?
**A.** The GI50 was 12 µM.

**Q.** What about the TGI [1] of the same molecule?
**A.** Its TGI is 35.9 µM.

**Q.** What about the GI50 [2] of the same molecule?
**A.** Its GI50 is 15.5 µM.

**Q.** What about the TGI [2] of the same molecule?
**A.** Its TGI is 61.5 µM.

**Q.** What about the GI50 [3] of the same molecule?
**A.** The GI50 was 18 µM.

**Q.** And the TGI [3]?
**A.** Its TGI is 51.2 µM.

**Q.** And the GI50 [4]?
**A.** The GI50 was 14.3 µM.

**Q.** And the TGI [4]?
**A.** Its TGI is greater than 100 µM.

**Q.** And the GI50 [5]?
**A.** The GI50 was 17 µM.

**Q.** What about the TGI [5] of the same molecule?
**A.** Its TGI is 50.3 µM.

**Q.** And the GI50 [6]?
**A.** Its GI50 is 15.3 µM.

**Q.** And the TGI [6]?
**A.** Its TGI is 34.1 µM.

**Q.** What about the GI50 [7] of the same molecule?
**A.** The GI50 was 9.62 µM.

**Q.** And the TGI [7]?
**A.** The TGI was 42.6 µM.

**Q.** What about the GI50 [8] of the same molecule?
**A.** Its GI50 is 11.6 µM.

**Q.** What about the TGI [8] of the same molecule?
**A.** Its TGI is 36.2 µM.

**Q.** What about the GI50 [9] of the same molecule?
**A.** The GI50 was 5.75 µM.

**Q.** What about the TGI [9] of the same molecule?
**A.** Its TGI is 23.1 µM.

**Q.** What about the GI50 [10] of the same molecule?
**A.** The GI50 was 2840 nM.

**Q.** What about the TGI [10] of the same molecule?
**A.** The TGI was 11.5 µM.

**Q.** What about the GI50 [11] of the same molecule?
**A.** The GI50 was 6.91 µM.

**Q.** And the TGI [11]?
**A.** Its TGI is 31.9 µM.

**Q.** And the GI50 [12]?
**A.** The GI50 was 18.8 µM.

**Q.** What about the TGI [12] of the same molecule?
**A.** The TGI was 43.9 µM.

**Q.** What about the GI50 [13] of the same molecule?
**A.** Its GI50 is 11.3 µM.

**Q.** What about the TGI [13] of the same molecule?
**A.** The TGI was 26.2 µM.

**Q.** What about the GI50 [14] of the same molecule?
**A.** The GI50 was 18.5 µM.

**Q.** What about the TGI [14] of the same molecule?
**A.** Its TGI is 93.8 µM.

**Q.** And the GI50 [15]?
**A.** Its GI50 is 3.55 µM.

**Q.** What about the TGI [15] of the same molecule?
**A.** Its TGI is 17.8 µM.

**Q.** What about the GI50 [16] of the same molecule?
**A.** The GI50 was 21 µM.

**Q.** And the TGI [16]?
**A.** The TGI was greater than 100 µM.

**Q.** What about the GI50 [17] of the same molecule?
**A.** Its GI50 is 12.9 µM.

**Q.** And the TGI [17]?
**A.** Its TGI is 44.7 µM.

**Q.** And the GI50 [18]?
**A.** Its GI50 is 12.4 µM.

**Q.** And the TGI [18]?
**A.** Its TGI is 30.9 µM.

**Q.** And the GI50 [19]?
**A.** The GI50 was 15.9 µM.

**Q.** And the TGI [19]?
**A.** The TGI was 36 µM.

**Q.** What about the GI50 [20] of the same molecule?
**A.** Its GI50 is 21.8 µM.

**Q.** And the TGI [20]?
**A.** The TGI was 67.9 µM.

**Q.** And the GI50 [21]?
**A.** The GI50 was 4.59 µM.

**Q.** What about the TGI [21] of the same molecule?
**A.** The TGI was 31.9 µM.

**Q.** And the GI50 [22]?
**A.** Its GI50 is 3.79 µM.

**Q.** What about the TGI [22] of the same molecule?
**A.** Its TGI is 15.6 µM.

**Q.** What about the GI50 [23] of the same molecule?
**A.** Its GI50 is 9.36 µM.

**Q.** And the TGI [23]?
**A.** Its TGI is 37 µM.

**Q.** And the GI50 [24]?
**A.** The GI50 was 6.66 µM.

**Q.** And the TGI [24]?
**A.** Its TGI is greater than 100 µM.

**Q.** What about the GI50 [25] of the same molecule?
**A.** The GI50 was 10.4 µM.

**Q.** What about the TGI [25] of the same molecule?
**A.** The TGI was 36.9 µM.

**Q.** What about the GI50 [26] of the same molecule?
**A.** The GI50 was 13.9 µM.

**Q.** What about the TGI [26] of the same molecule?
**A.** The TGI was 51.8 µM.

**Q.** What about the GI50 [27] of the same molecule?
**A.** Its GI50 is 16.5 µM.

**Q.** And the TGI [27]?
**A.** Its TGI is greater than 100 µM.

**Q.** What about the GI50 [28] of the same molecule?
**A.** The GI50 was 34.9 µM.

**Q.** And the TGI [28]?
**A.** The TGI was greater than 100 µM.

**Q.** What about the GI50 [29] of the same molecule?
**A.** The GI50 was 4.78 µM.

**Q.** And the TGI [29]?
**A.** Its TGI is 36.5 µM.

**Q.** What about the GI50 [30] of the same molecule?
**A.** Its GI50 is 7.87 µM.

**Q.** And the TGI [30]?
**A.** Its TGI is 34.7 µM.

**Q.** And the GI50 [31]?
**A.** Its GI50 is 6.84 µM.

**Q.** And the TGI [31]?
**A.** Its TGI is 34.7 µM.

**Q.** And the GI50 [32]?
**A.** Its GI50 is 10.4 µM.

**Q.** And the TGI [32]?
**A.** The TGI was 56.4 µM.

**Q.** And the GI50 [33]?
**A.** Its GI50 is 7.73 µM.

**Q.** And the TGI [33]?
**A.** The TGI was 28.8 µM.

**Q.** What about the GI50 [34] of the same molecule?
**A.** Its GI50 is 18.9 µM.

**Q.** What about the TGI [34] of the same molecule?
**A.** Its TGI is 56.1 µM.

**Q.** And the GI50 [35]?
**A.** The GI50 was 14.9 µM.

**Q.** And the TGI [35]?
**A.** Its TGI is 37.4 µM.

**Q.** And the GI50 [36]?
**A.** Its GI50 is 15.4 µM.

**Q.** What about the TGI [36] of the same molecule?
**A.** The TGI was 51.4 µM.

**Q.** And the GI50 [37]?
**A.** Its GI50 is 6.5 µM.

**Q.** And the TGI [37]?
**A.** Its TGI is 20.9 µM.

**Q.** What about the GI50 [38] of the same molecule?
**A.** The GI50 was 16.9 µM.

**Q.** What about the TGI [38] of the same molecule?
**A.** The TGI was 61.5 µM.

**Q.** And the GI50 [39]?
**A.** The GI50 was 11.9 µM.

**Q.** What about the TGI [39] of the same molecule?
**A.** The TGI was 59.5 µM.

**Q.** And the GI50 [40]?
**A.** Its GI50 is 14.8 µM.

**Q.** What about the TGI [40] of the same molecule?
**A.** The TGI was 70.3 µM.

**Q.** And the GI50 [41]?
**A.** Its GI50 is 3.33 µM.

**Q.** And the TGI [41]?
**A.** Its TGI is 8.46 µM.

**Q.** And the GI50 [42]?
**A.** Its GI50 is 7.27 µM.

**Q.** And the TGI [42]?
**A.** The TGI was greater than 100 µM.

**Q.** What about the GI50 [43] of the same molecule?
**A.** Its GI50 is 27.4 µM.

**Q.** And the TGI [43]?
**A.** Its TGI is 86.5 µM.

**Q.** And the GI50 [44]?
**A.** The GI50 was 11.9 µM.

**Q.** What about the TGI [44] of the same molecule?
**A.** Its TGI is greater than 100 µM.

**Q.** What about the GI50 [45] of the same molecule?
**A.** The GI50 was 15.6 µM.

**Q.** And the TGI [45]?
**A.** Its TGI is 40.4 µM.

**Q.** And the GI50 [46]?
**A.** The GI50 was 9.15 µM.

**Q.** What about the TGI [46] of the same molecule?
**A.** The TGI was 48.1 µM.

**Q.** What about the GI50 [47] of the same molecule?
**A.** The GI50 was 8.35 µM.

**Q.** What about the TGI [47] of the same molecule?
**A.** The TGI was 32.5 µM.
